The assay deals with T1, MAGL protein (Homo sapiens, UniProt Q99685).
T1 sequence (Q99685 1-303): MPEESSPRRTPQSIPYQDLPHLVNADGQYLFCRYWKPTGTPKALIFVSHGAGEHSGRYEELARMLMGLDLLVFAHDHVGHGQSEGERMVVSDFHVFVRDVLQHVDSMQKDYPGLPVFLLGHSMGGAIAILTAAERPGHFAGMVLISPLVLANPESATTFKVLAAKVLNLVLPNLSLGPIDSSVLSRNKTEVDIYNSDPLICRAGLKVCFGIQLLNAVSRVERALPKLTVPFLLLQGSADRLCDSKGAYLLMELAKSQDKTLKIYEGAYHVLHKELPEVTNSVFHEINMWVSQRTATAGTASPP
As to the kind of experiment: 2-AG assay: MAGL inhibitory activity by hydrolysis of 2-arachidonoylglycerol to arachidonic acid, followed by mass spectrometry. The following applies: 8 μM 2-arachidonoylglycerol, 15 min preincubation, 30 min reaction at RT, RapidFire MS readout. It is filed as biochemical. As to the method:
Compounds of formula (I) were profiled for MAGL inhibitory activity by determining the enzymatic activity by following the hydrolysis of the natural substrate 2-arachidonoylglycerol (2-AG) resulting in arachidonic acid, which can be followed by mass spectrometry. This assay is hereinafter abbreviated “2-AG assay”. The 2-AG assay was carried out in 384 well polypropylene assay plates. Compound dilutions were made in 100% DMSO in a polypropylene plate in 3-fold dilution steps to give a final concentration range in the assay from 12.5 μM to […]. Compound dilutions were added to MAGL protein in assay buffer (50 mM TRIS, 1 mM EDTA, 0.01% (v/v) Tween-20, 2.5% (v/v) DMSO). After shaking, the plate was incubated for 15 min at RT. To start the reaction, 2-arachidonoylglycerol in assay buffer was added. The final concentrations in the assay was […] for MAGL protein and 8 μM 2-arachidonoylglyerol. After shaking and 30 min incubation at RT, the reaction was quenched by the addition of two assay volumes of acetonitrile containing 4 μM of d8-arachidonic acid. The amount of arachidonic acid formed was traced by an online SPE system (Agilent Rapidfire) coupled to a triple quadrupole mass spectrometer. A C18 SPE cartridge (Agilent G9205A) was used in an acetonitrile/water liquid setup. The mass spectrometer was operated in negative electrospray mode following the mass transitions 303.1→259.1 for arachidonic acid and 311.1→267.0 for d8-arachidonic acid. The activity of the compounds was calculated based on the ratio of intensities [arachidonic acid/d8-arachidonic acid].

In general, IC50 refers to the midpoint of a concentration-inhibition curve. As for `N=S(=O)(c1cccc(CC2CC3(C2)CN(C(=O)N2CC4(CC(c5nc(C6CC(F)(F)C6)n[nH]5)C4)C2)C3)c1)C(F)(F)F` (centres unmarked) [compound 657], the IC50 turned out to be 17.2 nM. For the compound `O=C(N1CC(c2cnc(N3CC[C@H](C(F)(F)F)C3)nc2)C1)N1CC2(CC(c3nc(C4CC4)n[nH]3)C2)C1` [compound 708], half-maximal inhibition (IC50) was put at 2.63 nM. The value for `O=C(N1CC2(CC(c3nc(C4CC4)n[nH]3)C2)C1)N1CC2(CN(Cc3cc(C(F)(F)F)ns3)C2)C1` [compound 713] was 3.42 nM; that for `N=S(=O)(c1ccc(C2CN(C(=O)N3CC4(CC(c5nc(C6CC6)n[nH]5)C4)C3)C2)cc1)C(F)(F)F` (centres unmarked) [compound 638] was 0.52 nM; that for `O=C(N1CC2(CCC(Cc3ccc(C(F)(F)F)cn3)CC2)C1)N1CC2(CC(c3nnc(C4(O)CC4)[nH]3)C2)C1` [compound 49] was 0.81 nM.

Consider `O=C(N1CC2(CCN(Cc3cc(C(F)(F)F)on3)CC2)C1)N1CC2(CC(c3nc(C4CC4)n[nH]3)C2)C1` [compound 544], for which 8.72 nM corresponded to half-maximal inhibition (IC50). The same measure for `CS(=O)(=O)c1cc(F)ccc1C12CC(C3CN(C(=O)N4CC5(CC(c6nc(C7CC7)n[nH]6)C5)C4)C3)(C1)C2` [compound 685]: 0.96 nM; for `N#Cc1ncc(CC2CC3(C2)CN(C(=O)N2CC4(CC(c5nnc(C6CC6)[nH]5)C4)C2)C3)cc1C(F)(F)F` [compound 535]: 0.65 nM; for `O=C(N1CC2(CC(Cc3cnc(C(F)(F)F)cn3)C2)C1)N1CC2(CC(c3nc(C4COC4)n[nH]3)C2)C1` [compound 761]: 147 nM.

Turning to `O=C(N1CC(c2ccc(C3(C(F)(F)F)CC3)cc2)C1)N1CC2(CC(c3nnc([C@H](O)C(F)(F)F)[nH]3)C2)C1` (single isomer, unassigned) [compound 230], inhibition was half-maximal at 3.89 nM (IC50). The value for `CS(=O)(=O)c1ccc(OC2CCC3(C2)CN(C(=O)N2CC4(CC(c5nnc(C6CC6)[nH]5)C4)C2)C3)cc1C(F)(F)F` (racemic) [compound 155] was 1.99 nM; that for `N#Cc1cccn(CC2CC3(C2)CN(C(=O)N2CC4(CC(c5nc(C6CC6)n[nH]5)C4)C2)C3)c1=O` [compound 510] was 20.4 nM. `O=C(N1CC2(CC(c3nnc(C4CC4)[nH]3)C2)C1)N1CC2(CC(c3ccc(C(F)(F)F)cc3F)C2)C1` [compound 938] returned an IC50 of 0.29 nM. The value for `CC(C)(C)c1conc1CN1CC2(C1)CN(C(=O)N1CC3(CC(c4nc(C5CC5)n[nH]4)C3)C1)C2` [compound 591] was 3.64 nM; that for `O=C(N1CC(c2ccc(NCC3(C(F)(F)F)CC3)cc2)C1)N1CC2(CC(c3nnc(C4CC4)[nH]3)C2)C1` [compound 257] was 0.08 nM; that for `CC(C)c1cc(C(C)C)n(-c2ccc(C3CN(C(=O)N4CC5(CC(c6nnc(C7CC7)[nH]6)C5)C4)C3)cc2)n1` [compound 276] was 0.17 nM. The value for `O=C(N1CC2(CC(c3cnc(C(F)(F)F)nc3)C2)C1)N1CC2(CC(c3nnc(C4CC4)[nH]3)C2)C1` [compound 630] was 1.36 nM; that for `CC(C)(C)c1csc(CN2CC3(C2)CN(C(=O)N2CC4(CC(c5nc(C6CC6)n[nH]5)C4)C2)C3)n1` [compound 740] was 1.32 nM. `O=C(N1CC2(CCN(c3ncc(Cl)cc3F)CC2)C1)N1CC2(CC(c3nnc(C4CC4)[nH]3)C2)C1` [compound 281] registered an IC50 of 1.02 nM. The value for `O=C(N1CCC(COc2ccc(F)c(C(F)(F)F)c2)CC1)N1CC2(CC(c3nc(C4(O)CC4)n[nH]3)C2)C1` [Example 916, [4-[[4-fluoro-3-(trifluoromethyl)phenoxy]methyl]piperidino]-[6-[3-(1-hydroxycyclopropyl)-1H-1,2,4-triazol-5-yl]-2-azaspiro[3.3]heptan-2-yl]methanone] was 39.7 nM; that for `COC(=O)c1cc(CC2CC3(C2)CN(C(=O)N2CC4(CC(c5nc(C6CC6)n[nH]5)C4)C2)C3)ccc1OC(F)(F)F` [compound 912] was 0.07 nM; that for `O=C(N1CC(c2ccc(C3(C(F)(F)F)CC3)nc2)C1)N1CC2(CC(c3nnc(C4CC4)[nH]3)C2)C1` [compound 231] was 3.39 nM. Consider `N#Cc1ccc(CC2CC3(C2)CN(C(=O)N2CC4(CC(c5nc(C6CC6)n[nH]5)C4)C2)C3)cc1C(F)(F)F` [compound 590], for which the IC50 was found to be 0.34 nM. In turn, `CS(=O)(=O)C1(c2ccc(C3CN(C(=O)N4CC5(CC(c6nc(C7(O)CC7)n[nH]6)C5)C4)C3)cc2)CC1` [compound 790] yielded an IC50 of 9.68 nM. The value for `O=C(N1CC2(CC(c3nnc(C4CC4)[nH]3)C2)C1)N1CC2(CN(Cc3ncc(C(F)(F)F)cn3)C2)C1` [compound 161] was 78.8 nM.

In turn, `CCNC(=O)c1ccccc1-c1ccc(C2CN(C(=O)N3CC4(CC(c5nnc(C6CC6)[nH]5)C4)C3)C2)cc1` [Example 391, 2-[4-[1-[6-(5-cyclopropyl-4H-1,2,4-triazol-3-yl)-2-azaspiro[3.3]heptane-2-carbonyl]azetidin-3 yl]phenyl]-N-ethyl-benzamide] had an IC50 of 48.3 nM. Consider `O=C(N1CC(C23CC(c4cncc(F)c4)(C2)C3)C1)N1CC2(CC(c3nc(C4CC4)n[nH]3)C2)C1` [compound 760], for which inhibition was half-maximal at 6.09 nM (IC50). With `O=C(N1CC(OCc2ccc(C(F)(F)F)cc2F)C1)N1CC2(CC(c3nnc(C4(O)CC4)[nH]3)C2)C1` [compound 324], the IC50 worked out at 14.3 nM. With `CS(=O)(=O)c1ccccc1-c1ccc(C2CN(C(=O)N3CC4(CC(c5nc(C6(O)CC6)n[nH]5)C4)C3)C2)cc1` [Example 781, [6-[3-(1-hydroxycyclopropyl)-1H-1,2,4-triazol-5-yl]-2-azaspiro[3.3]heptan-2-yl]-[3-[4-(2-mesylphenyl)phenyl]azetidin-1-yl]methanone], the IC50 was found to be 0.93 nM. The value for `Cn1ncc(OC2CC3(C2)CN(C(=O)N2CC4(CC(c5nc(C6CC6)n[nH]5)C4)C2)C3)c1C(F)(F)F` [compound 592] was 1.38 nM; that for `O=C(N1CC2(CC(c3nc(C4CC4)n[nH]3)C2)C1)N1CC2(CN(Cc3cc(C(F)(F)F)[nH]n3)C2)C1` [compound 625] was 8.75 nM. For the compound `O=C(N1CC2(CC(c3nc(C4CC4)n[nH]3)C2)C1)N1CC2(CN(Cc3ncc(C(F)(F)F)[nH]3)C2)C1` [compound 641], it took 67.4 nM to reach half-maximal inhibition (IC50). The value for `O=C(N1CC(c2cnc(NCC3(C(F)(F)F)CC3)cn2)C1)N1CC2(CC(c3nnc(C4CC4)[nH]3)C2)C1` [compound 255] was 0.68 nM; that for `Cn1ncc(CC2CC3(C2)CN(C(=O)N2CC4(CC(c5nc(C6CC6)n[nH]5)C4)C2)C3)c1C(F)(F)F` [compound 729] was 0.09 nM.

`O=C(N1CC(COc2ccc(C(F)(F)F)cc2F)C1)N1CC2(CC(c3nnc(C4CC4)[nH]3)C2)C1` [compound 347] showed an IC50 of 0.31 nM. Take `O=C(N1CC(OCc2ccc(C(F)(F)F)cc2F)C1)N1CC2(CC(c3nnc(C(O)C(F)(F)F)[nH]3)C2)C1` (centres unmarked) [compound 336]: the IC50 was found to be 55.8 nM. With `COC(=O)C1(c2ccc(C3CN(C(=O)N4CC5(CC(c6nnc(C7CC7)[nH]6)C5)C4)C3)cc2)CC1` [compound 372], half-maximal inhibition (IC50) required 0.57 nM. As for `O=C(N1CC(c2ccc(N3CCS(=O)(=O)CC3)nc2)C1)N1CC2(CC(c3nnc(C4CC4)[nH]3)C2)C1` [compound 80], the half-inhibitory concentration (IC50) was determined as 58.3 nM. The same measure for `O=C(N1CC(c2ccc(C3(C(F)(F)F)CC3)cc2)C1)N1CC2(CC(c3nnc([C@@H](O)C(F)(F)F)[nH]3)C2)C1` (single isomer, unassigned) [compound 229]: 33.9 nM; for `O=C(N1CC2(CC(CNC3(C(F)(F)F)CC3)C2)C1)N1CC2(CC(c3nnc(C4CC4)[nH]3)C2)C1` [compound 54]: 2.8 nM. On to `O=C(N1CC2(CC(Cc3cncc(C(F)(F)F)c3)C2)C1)N1CC2(CC(c3nc(C4COC4)n[nH]3)C2)C1` [compound 748], for which half-maximal inhibition (IC50) was put at 37.2 nM. `CS(=O)(=O)c1ccc(CC2CC3(C2)CN(C(=O)N2CC4(CC(c5nc(C6CC(F)(F)C6)n[nH]5)C4)C2)C3)cc1` [compound 582] gave an IC50 of 167 nM. For the compound `N=S(=O)(c1ccc(C2CN(C(=O)N3CC4(CC(c5nc(C6(O)CC6)n[nH]5)C4)C3)C2)cc1)C1CC1` (centres unmarked) [compound 496], half-maximal inhibition (IC50) required 37 nM. Take `Cc1cc(C2CC2)n(C23CC(C4CN(C(=O)N5CC6(CC(c7nc(C8CC8)n[nH]7)C6)C5)C4)(C2)C3)n1` [compound 587]: the IC50 amounted to 2.4 nM. In the case of `O=C(N1CC2(CC(c3nc(C4CC4)n[nH]3)C2)C1)N1CC2(CN(Cc3ccc(=O)[nH]c3)C2)C1` [compound 541], the IC50 was determined as 1110 nM.

`Cc1cc(C(C)(C)C)nn1-c1ccc(C2CN(C(=O)N3CC4(CC(c5nnc(C6CC6)[nH]5)C4)C3)C2)cc1` [compound 277] came in with an IC50 of 0.17 nM. On to `O=C(N1CC(c2ccc(C3(C(F)(F)F)CC3)cc2)C1)N1CC2(CC(c3nnc(C4CC4)[nH]3)C2)C1` [compound 226], for which the IC50 was 0.11 nM.

Values taken from patent publication US20250099448A1, “HETEROCYCLIC COMPOUNDS” (Hoffmann-La Roche Inc., priority 2022, published 2025).
